In patent publication US11440923B2, “Substituted macrocyclic indole derivatives” (Bayer Aktiengesellschaft, priority 2017, dated 2022) one finds IC50 data, which are given here for six compounds.

For one assay, the target named is MCL-1 (Homo sapiens (Human), UniProt Q07820, K194A/K197A/R201A). In words: Protein-protein interaction assay MCL-1/Noxa BH3 peptide (MCL-1 assay, TR-FRET). Type of assay: binding. Put shortly:
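Competition TR-FRET with MBP-MCL-1 (aa 173-321) at 1 nM final and biotinylated Noxa BH3 peptide, pH 7 Tris buffer. Compounds pre-incubated 10 min at 22° C., then 1 h at 22° C. and overnight at 4° C. 665/620 nm ratio normalized to DMSO; IC50 from 4-parameter fit.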

For assay [1], the target named is MCL1 protein / biotinylated BIM BH3 peptide in RKO cells (Homo sapiens (Human), UniProt Q07820). In words: PIxEL: protein-protein interaction in permeabilized cells by ELISA (Assay 5). Type of assay: cell-based. The following applies: PIxEL IC50 (median). Put shortly: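 Digitonin (0.002%)-permeabilized RKO cells in MEB buffer pH 7.5 were treated with compound (3-fold series, top 30 μM) plus 0.2 μM biotin-BIM BH3 peptide for 1 h at room temperature. Lysates were captured on anti-MCL1 ELISA plates and bound peptide read by streptavidin-HRP luminescence. IC50 came from signal normalized to no-compound and no-cell controls.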

Read-outs that look alike come from different tables or passages of the source.

Chain of MCL1 protein / biotinylated BIM BH3 peptide in RKO cells (Q07820 whole entry): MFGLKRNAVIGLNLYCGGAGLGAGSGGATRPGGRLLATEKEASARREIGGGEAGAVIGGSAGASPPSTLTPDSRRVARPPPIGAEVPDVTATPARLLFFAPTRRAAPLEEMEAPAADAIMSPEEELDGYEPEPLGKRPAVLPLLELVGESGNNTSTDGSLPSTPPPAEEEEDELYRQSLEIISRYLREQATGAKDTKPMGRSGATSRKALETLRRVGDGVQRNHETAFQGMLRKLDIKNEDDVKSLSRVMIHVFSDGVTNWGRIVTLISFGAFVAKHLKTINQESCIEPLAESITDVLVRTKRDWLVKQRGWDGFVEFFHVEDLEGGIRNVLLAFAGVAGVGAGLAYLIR
Chain of MCL-1 (Q07820 whole entry, looked up, stated change not applied, the tested form may be a part): as the sequence (Q07820 whole entry) above

For orientation: IC50 means the midpoint of a concentration-inhibition curve. Turning to `CCc1c2c(nn1C)C1CCCN1CCCCn1c(C(=O)O)c(CCCOc3cccc4cc(F)ccc34)c3ccc(Cl)c-2c31` (single isomer, unassigned; (+)) [Example 105, (+)-17-chloro-1-ethyl-14-{3-[(6-fluoronaphthalen-1-yl)oxy]propyl}-2-methyl-3b,4,5,6,8,9,10,11-octahydro-2H-pyrazolo[3′,4′:8,9]pyrrolo[1′,2′:6,7][1,6]diazacycloundecino[10,11,1-hi]indole-13-carboxylic Acid], the IC50 is 1.1 nM at MCL-1 (read-out: MCL-1 Assay IC50 (median)) and 63 nM in assay [1].
`Cc1c2c(nn1C)C(C1CC1)OCCCCn1c(C(=O)O)c(CCCOc3cccc4ccccc34)c3ccc(Cl)c-2c31` (racemic) [Example 28, (rac)-4-Chloro-15-cyclopropyl-2,3-dimethyl-7-{3-[(naphthalen-1-yl)oxy]propyl}-2,10,11,12,13,15-hexahydropyrazolo[4′,3′:9,10][1,6]oxazacycloundecino[8,7,6-hi]indole-8-carboxylic Acid]: the values for the IC50 (on MCL-1 (MCL-1 Assay IC50 (median)); in assay [1]) were 1.1 nM and 2330 nM, respectively.
The corresponding values for `Cc1c2c(nn1C)C(CCN1CCOCC1)OCCCCn1c(C(=O)O)c(CCCOc3cccc4ccccc34)c3ccc(Cl)c-2c31` (single isomer, unassigned; enantiomer 1) [Example 14, 4-chloro-2,3-dimethyl-15-[2-(morpholin-4-yl)ethyl]-7-{3-[(naphthalen-1-yl)oxy]propyl}-2,10,11,12,13,15-hexahydropyrazolo[4′,3′:9,10][1,6]oxazacycloundecino[8,7,6-hi]indole-8-carboxylic Acid (Enantiomer 1)] are 0.53 nM and 83.4 nM.
With `CCc1c2c(nn1C)C1CCCCN1CCCCn1c(C(=O)O)c(CCCOc3cccc4ccccc34)c3ccc(Cl)c-2c31` (racemic) [Example 102, (rac)-18-chloro-1-ethyl-2-methyl-15-[3-(1-naphthyloxy)propyl]-2,3b,4,5,6,7,9,10,11,12-decahydropyrazolo[3′,4′:8,9]pyrido[1′,2′:6,7][1,6]diazacycloundecino[10,11,1-hi]indole-14-carboxylic Acid], the 50% inhibitory concentration (IC50) against MCL-1 (MCL-1 Assay IC50 (median)) came to 1.4 nM; in assay [1], 59.9 nM.
`CCc1c2c(nn1C)C(CCO)OCCCCn1c(C(=O)O)c(CCCOc3cccc4cc(F)ccc34)c3ccc(Cl)c-2c31` (single isomer, unassigned; enantiomer 1) [Example 45, (+)-4-chloro-3-ethyl-7-{3-[(6-fluoronaphthalen-1-yl)oxy]propyl}-15-(2-hydroxyethyl)-2-methyl-2,10,11,12,13,15-hexahydropyrazolo[4′,3′:9,10][1,6]oxazacycloundecino[8,7,6-hi]indole-8-carboxylic Acid (Enantiomer 1)]: the half-maximal inhibitory concentration (IC50) was determined as 0.55 nM against MCL-1 (MCL-1 Assay IC50 (median)) and 155 nM in assay [1].
Take `CCc1c2c(nn1C)C(CCN1CCOCC1)OCCCCn1c(C(=O)O)c(CCCOc3cccc4cc(F)ccc34)c3ccc(F)c-2c31` (single isomer, unassigned; enantiomer 2) [Example 51, (−)-3-ethyl-4-fluoro-7-{3-[(6-fluoronaphthalen-1-yl)oxy]propyl}-2-methyl-15-[2-(morpholin-4-yl)ethyl]-2,10,11,12,13,15-hexahydropyrazolo[4′,3′:9,10][1,6]oxazacycloundecino[8,7,6-hi]indole-8-carboxylic Acid (Enantiomer 2)]: the IC50 against MCL-1 (MCL-1 Assay IC50 (median)) was 60 nM; in assay [1] it was 12000 nM.
